Results published in patent publication US20150321164A1, “METHOD FOR SYNTHESIZING AND SCREENING LEAD COMPOUND AND REAGENT TESTING KIT” (HITGEN LTD., priority 2012, published 2015).

Biological target: T1, trypsin (Bos taurus, UniProt P00760)
T1 sequence (P00760 24-246): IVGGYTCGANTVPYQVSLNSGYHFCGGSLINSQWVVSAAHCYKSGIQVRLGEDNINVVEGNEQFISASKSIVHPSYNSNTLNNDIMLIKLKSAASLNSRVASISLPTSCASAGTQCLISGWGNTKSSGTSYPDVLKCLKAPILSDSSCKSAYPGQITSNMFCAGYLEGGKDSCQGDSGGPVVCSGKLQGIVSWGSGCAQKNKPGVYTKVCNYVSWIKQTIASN
Assay: trypsin enzyme inhibition activity
Format: biochemical
Conditions: enzyme inhibition activity of the resynthesized screened compound, FIGS. 4-5
Description: According to the structural formula, the compound is tested at the end of synthesis.

## C[C@H](NC(=O)[C@H](CNC(=O)Cc1ccc2ccccc2c1)NS(=O)(=O)c1ccccc1)C(=O)NCc1ccc(C(=N)N)cc1
  IC50: 8.1 ± 2.1 nM
